Data reported in PubChem BioAssay (NCI).
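The concentration for 50% growth inhibition is given as GI50. TGI marks complete inhibition of growth.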

Assays:
Assay in all cases: NCI tumour cell line growth inhibition, 384-well format
ACHN renal = tested on: ACHN renal
HS 578T breast = tested on: HS 578T breast
NCI-H460 NSCLC = tested on: NCI-H460 NSCLC
SF-268 CNS = tested on: SF-268 CNS
A498 renal = tested on: A498 renal
COLO 205 colon = tested on: COLO 205 colon
NCI-H522 lung = tested on: NCI-H522 lung
UACC-257 melanoma = tested on: UACC-257 melanoma
M14 melanoma = tested on: M14 melanoma
HCC-2998 colon = tested on: HCC-2998 colon
HOP-62 NSCLC = tested on: HOP-62 NSCLC
HOP-92 NSCLC = tested on: HOP-92 NSCLC
NCI-H322M lung = tested on: NCI-H322M lung
MDA-MB-435 melanoma = tested on: MDA-MB-435 melanoma
MALME-3M melanoma = tested on: MALME-3M melanoma
DU-145 prostate = tested on: DU-145 prostate
HCT-15 colon = tested on: HCT-15 colon
MDA-MB-468 breast = tested on: MDA-MB-468 breast
MDA-MB-231 breast = tested on: MDA-MB-231 breast
NCI/ADR-RES ovarian = tested on: NCI/ADR-RES ovarian
CAKI-1 renal = tested on: CAKI-1 renal
SK-OV-3 ovarian = tested on: SK-OV-3 ovarian
SNB-75 CNS = tested on: SNB-75 CNS
UACC-62 melanoma = tested on: UACC-62 melanoma
OVCAR-5 ovarian = tested on: OVCAR-5 ovarian
EKVX NSCLC = tested on: EKVX NSCLC
CCRF-CEM leukemia = tested on: CCRF-CEM leukemia
NCI-H23 lung = tested on: NCI-H23 lung
OVCAR-4 ovarian = tested on: OVCAR-4 ovarian
OVCAR-8 ovarian = tested on: OVCAR-8 ovarian
SK-MEL-5 melanoma = tested on: SK-MEL-5 melanoma
SW-620 colon = tested on: SW-620 colon
SK-MEL-28 melanoma = tested on: SK-MEL-28 melanoma
UO-31 renal = tested on: UO-31 renal
SNB-19 CNS = tested on: SNB-19 CNS
SF-295 CNS = tested on: SF-295 CNS
LOX IMVI melanoma = tested on: LOX IMVI melanoma
HL-60(TB) leukemia = tested on: HL-60(TB) leukemia
BT-549 breast = tested on: BT-549 breast
KM12 colon = tested on: KM12 colon
SF-539 CNS = tested on: SF-539 CNS
K-562 leukemia = tested on: K-562 leukemia
U251 glioblastoma = tested on: U251 glioblastoma
NCI-H226 lung = tested on: NCI-H226 lung
PC-3 prostate = tested on: PC-3 prostate
SK-MEL-2 melanoma = tested on: SK-MEL-2 melanoma
A549 NSCLC = tested on: A549 NSCLC
MCF7 breast = tested on: MCF7 breast
SN12C renal = tested on: SN12C renal
TK-10 renal = tested on: TK-10 renal
RPMI-8226 leukemia = tested on: RPMI-8226 leukemia
RXF 393 renal = tested on: RXF 393 renal
IGROV1 ovarian = tested on: IGROV1 ovarian
786-0 renal = tested on: 786-0 renal
T-47D breast = tested on: T-47D breast
MOLT-4 leukemia = tested on: MOLT-4 leukemia
HT29 colon = tested on: HT29 colon
HCT-116 colon = tested on: HCT-116 colon
OVCAR-3 ovarian = tested on: OVCAR-3 ovarian

C[C@]12O[C@H](C[C@]1(O)CO)n1c3ccccc3c3c4c(c5c6ccccc6n2c5c31)CNC4=O
GI50 (ACHN renal): < 10 nM
TGI (ACHN renal): 1680 nM
GI50 (HS 578T breast): 33.9 nM
TGI (HS 578T breast): 769 nM
GI50 (NCI-H460 NSCLC): 34.8 nM
TGI (NCI-H460 NSCLC): 1090 nM
GI50 (SF-268 CNS): 44.2 nM
TGI (SF-268 CNS): 1400 nM
GI50 (A498 renal): < 10 nM
TGI (A498 renal): 1370 nM
GI50 (COLO 205 colon): 20.2 nM
TGI (COLO 205 colon): 103 nM
GI50 (NCI-H522 lung): < 10 nM
TGI (NCI-H522 lung): 111 nM
GI50 (UACC-257 melanoma): 395 nM
TGI (UACC-257 melanoma): 1680 nM
GI50 (M14 melanoma): < 10 nM
TGI (M14 melanoma): 155 nM
GI50 (HCC-2998 colon): 153 nM
TGI (HCC-2998 colon): 773 nM
GI50 (HOP-62 NSCLC): 44.5 nM
TGI (HOP-62 NSCLC): 646 nM
GI50 (HOP-92 NSCLC): 70.6 nM
TGI (HOP-92 NSCLC): 720 nM
GI50 (NCI-H322M lung): 584 nM
TGI (NCI-H322M lung): 2140 nM
GI50 (MDA-MB-435 melanoma): < 10 nM
TGI (MDA-MB-435 melanoma): 1110 nM
GI50 (MALME-3M melanoma): < 10 nM
TGI (MALME-3M melanoma): 79.5 nM
GI50 (DU-145 prostate): < 10 nM
TGI (DU-145 prostate): 1620 nM
GI50 (HCT-15 colon): < 10 nM
TGI (HCT-15 colon): 1300 nM
GI50 (MDA-MB-468 breast): 21.5 nM
TGI (MDA-MB-468 breast): 290 nM
GI50 (MDA-MB-231 breast): 60.9 nM
TGI (MDA-MB-231 breast): 1540 nM
GI50 (NCI/ADR-RES ovarian): 1200 nM
TGI (NCI/ADR-RES ovarian): 2460 nM
GI50 (CAKI-1 renal): < 10 nM
TGI (CAKI-1 renal): 228 nM
GI50 (SK-OV-3 ovarian): < 10 nM
TGI (SK-OV-3 ovarian): 627 nM
GI50 (SNB-75 CNS): 143 nM
TGI (SNB-75 CNS): 1160 nM
GI50 (UACC-62 melanoma): < 10 nM
TGI (UACC-62 melanoma): 610 nM
GI50 (OVCAR-5 ovarian): 122 nM
TGI (OVCAR-5 ovarian): 1900 nM
GI50 (EKVX NSCLC): 33.6 nM
TGI (EKVX NSCLC): 471 nM
GI50 (CCRF-CEM leukemia): 11.3 nM
TGI (CCRF-CEM leukemia): 39.7 nM
GI50 (NCI-H23 lung): 24.1 nM
TGI (NCI-H23 lung): 311 nM
GI50 (OVCAR-4 ovarian): 1380 nM
TGI (OVCAR-4 ovarian): 3200 nM
GI50 (OVCAR-8 ovarian): 96.5 nM
TGI (OVCAR-8 ovarian): 275 nM
GI50 (SK-MEL-5 melanoma): < 10 nM
TGI (SK-MEL-5 melanoma): 145 nM
GI50 (SW-620 colon): 41.6 nM
TGI (SW-620 colon): 1450 nM
GI50 (SK-MEL-28 melanoma): 35.8 nM
TGI (SK-MEL-28 melanoma): 453 nM
GI50 (UO-31 renal): 14.9 nM
TGI (UO-31 renal): 1160 nM
GI50 (SNB-19 CNS): 341 nM
TGI (SNB-19 CNS): 1850 nM
GI50 (SF-295 CNS): 44.7 nM
TGI (SF-295 CNS): 1260 nM
GI50 (LOX IMVI melanoma): 25.3 nM
TGI (LOX IMVI melanoma): 186 nM
GI50 (HL-60(TB) leukemia): < 10 nM
TGI (HL-60(TB) leukemia): 51.6 nM
GI50 (BT-549 breast): 12.3 nM
TGI (BT-549 breast): 213 nM
GI50 (KM12 colon): < 10 nM
TGI (KM12 colon): 212 nM
GI50 (SF-539 CNS): 24.2 nM
TGI (SF-539 CNS): 276 nM
GI50 (K-562 leukemia): 60.1 nM
TGI (K-562 leukemia): 1610 nM
GI50 (U251 glioblastoma): 290 nM
TGI (U251 glioblastoma): 1880 nM
GI50 (NCI-H226 lung): 57.4 nM
TGI (NCI-H226 lung): 734 nM
GI50 (PC-3 prostate): 100 nM
TGI (PC-3 prostate): 1860 nM
GI50 (SK-MEL-2 melanoma): < 10 nM
TGI (SK-MEL-2 melanoma): 84.7 nM
GI50 (A549 NSCLC): 76.3 nM
TGI (A549 NSCLC): 1590 nM
GI50 (MCF7 breast): 64.2 nM
TGI (MCF7 breast): 1330 nM
GI50 (SN12C renal): < 10 nM
TGI (SN12C renal): 458 nM
GI50 (TK-10 renal): < 10 nM
TGI (TK-10 renal): 598 nM
GI50 (RPMI-8226 leukemia): 11.6 nM
TGI (RPMI-8226 leukemia): 39.8 nM
GI50 (RXF 393 renal): < 10 nM
TGI (RXF 393 renal): 49.6 nM
GI50 (IGROV1 ovarian): < 10 nM
TGI (IGROV1 ovarian): 1150 nM
GI50 ([…]-0 renal): 31.3 nM
TGI (786-0 renal): 515 nM
GI50 (T-47D breast): 456 nM
TGI (T-47D breast): 4260 nM
GI50 (MOLT-4 leukemia): < 10 nM
TGI (MOLT-4 leukemia): 12.8 nM
GI50 (HT29 colon): 212 nM
TGI (HT29 colon): 10500 nM
GI50 (HCT-116 colon): < 10 nM
TGI (HCT-116 colon): 10300 nM
GI50 (OVCAR-3 ovarian): 157 nM
TGI (OVCAR-3 ovarian): 1280 nM
